From BindingDB's records for doi:10.1124/mol.51.2.350 (Schering-Plough Research Institute, 1997) come the findings set out here.

The assay concerns the target Prothrombin (Homo sapiens, UniProt P00734).

Square brackets hold non-standard residues; d marks the D form. Peptide text beside a SMILES is read from it. * marks the point of attachment. Phe(4-F) = N[C@@H](Cc1ccc(F)cc1)C(=O)O; hArg = N=C(N)NCCCC[C@H](N)C(=O)O; Cha = N[C@@H](CC1CCCCC1)C(=O)O; X1 = CC(=O)C(Cc1ccccc1)N*

`CC(=O)O[C@]1(C(C)=O)CC[C@H]2[C@@H]3C[C@H](C)C4=CC(=O)CC[C@]4(C)C3CC[C@@]21C` (some centres undefined): the Ki – broadly, the dissociation constant of the complex between target and ligand, obtained from inhibition or displacement – is > 10 µM. The same measure for `CSCC[C@H](NC(=O)[C@H](CC(C)C)NC(=O)CNC(=O)[C@H](Cc1ccccc1)NC(=O)[C@H](Cc1ccccc1)NC(=O)[C@H](CCC(N)=O)NC(=O)[C@H](CCC(N)=O)NC(=O)[C@@H]1CCCN1C(=O)[C@H](CCCCN)NC(=O)[C@@H]1CCCN1C(=O)[C@@H](N)CCCN=C(N)N)C(N)=O` [Arg-Pro-Lys-Pro-Gln-Gln-Phe-Phe-Gly-Leu-Met NH2]: > 10 µM; for `NC(N)=NCCCC(N)C(=O)N1CCCC1C(=O)N1CCCC1C(=O)NCC(=O)NC(Cc1ccccc1)C(=O)NC(CO)C(=O)N1CCCC1C(=O)NC(Cc1ccccc1)C(=O)O` (centres undefined) [CAS_58-82-2]: > 10 µM. Turning to `CCC(C)C(NC(=O)C(CO)NC(=O)C(CC(N)=O)NC(=O)C(CC(C)C)NC(=O)C(Cc1ccc(O)cc1)NC(=O)C(CCCCN)NC(=O)C(CCCCN)NC(=O)C(NC(=O)C(C)NC(=O)C(CCSC)NC(=O)C(CCC(N)=O)NC(=O)C(CCCCN)NC(=O)C(CCCN=C(N)N)NC(=O)C(CC(C)C)NC(=O)C(CCCN=C(N)N)NC(=O)C(NC(=O)C(Cc1ccc(O)cc1)NC(=O)C(CC(N)=O)NC(=O)C(CC(=O)O)NC(=O)C(NC(=O)C(Cc1ccccc1)NC(=O)C(NC(=O)C(C)NC(=O)C(CC(=O)O)NC(=O)C(CO)NC(=O)C(N)Cc1cnc[nH]1)C(C)C)C(C)O)C(C)O)C(C)C)C(=O)NC(CC(C)C)C(=O)NC(CC(N)=O)C(=O)O` (centres undefined) [CAS_37221-79-7], the Ki is > 10 µM. The same measure for `CC(C)C[C@H](NC(=O)[C@H](CC(C)C)NC(=O)[C@H](Cc1ccccc1)NC(=O)[C@@H](N)CO)C(=O)N[C@@H](CCCN=C(N)N)C(=O)N[C@@H](CC(N)=O)C(N)=O` [CAS_141923-40-2]: 0.168 µM; for `CC(C)C[C@H](NC(=O)CNC(=O)[C@H](CC(N)=O)NC(=O)[C@H](CCCCN)NC(=O)[C@H](CC(=O)O)NC(=O)[C@H](CO)NC(=O)[C@H](Cc1ccccc1)NC(=O)[C@H](CO)NC(=O)[C@H](CCCNC(=N)N)NC(=O)[C@H](Cc1cnc[nH]1)NC(=O)[C@H](CC(N)=O)NC(=O)CNC(=O)[C@@H](NC(=O)[C@H](C)NC(=O)[C@H](Cc1cnc[nH]1)NC(=O)[C@@H]1CCCN1C(=O)CNC(=O)[C@H](CC(C)C)NC(=O)[C@H](CC(C)C)NC(=O)[C@H](Cc1ccc(O)cc1)NC(=O)CNC(=O)[C@H](C)NC(=O)[C@H](CO)NC(=O)[C@H](CC(N)=O)NC(=O)[C@H](CC(C)C)NC(=O)[C@@H](NC(=O)[C@H](Cc1c[nH]c2ccccc12)NC(=O)CN)[C@@H](C)O)C(C)C)C(=O)N[C@H](C(=O)N[C@@H](CO)C(=O)O)[C@@H](C)O` [Galanin, Human]: > 10 µM; for `C[C@H](N)C(=O)N[C@@H](Cc1ccc(F)cc1)C(=O)N[C@@H](CCCN=C(N)N)C(=O)N[C@@H](CC1CCCCC1)C(=O)N[C@@H](CCCCN=C(N)N)C(=O)N[C@@H](Cc1ccccc1)C(N)=O` [L-Ala-4-Fluoro-L-Phe-L-Arg-3-cyclohexyl-L-Ala-N-amidino-L-Lys-L-Phe-NH2] (H-A[Phe(4-F)]R[Cha][hArg]F-NH2): 0.024 µM. Consider `CCC(C)C(NC(=O)C(Cc1ccc(O)cc1)NC(=O)C(NC(=O)C(CCCN=C(N)N)NC(=O)C(N)CC(=O)O)C(C)C)C(=O)NC(Cc1cnc[nH]1)C(=O)NC(Cc1cnc[nH]1)C(=O)N1CCCC1C(=O)NC(Cc1ccccc1)C(C)=O` (centres undefined) [NSC_439662] (H-DRVYIHHP-X1; configuration not given here), for which the Ki was > 10 µM. The same measure for `CSCCC(NC(=O)C(CC(C)C)NC(=O)CNC(=O)C(NC(=O)C(Cc1ccccc1)NC(=O)C(CO)NC(=O)C(CC(=O)O)NC(=O)C(NC(=O)C(CCCCN)NC(=O)C(N)Cc1cnc[nH]1)C(C)O)C(C)C)C(N)=O` (stereo not drawn) [Neurokinin alpha]: > 10 µM; for `CC(C)C[C@H](NC(=O)[C@H](CC(C)C)NC(=O)[C@H](Cc1ccccc1)NC(=O)[C@@H](N)CO)C(=O)N[C@@H](CCCN=C(N)N)C(=O)O` [SFLLR-OH]: > 10 µM.

`CC(C)C[C@H](NC(=O)[C@H](CC(C)C)NC(=O)[C@H](Cc1ccccc1)NC(=O)[C@@H](N)CO)C(=O)N[C@@H](CCCN=C(N)N)C(=O)N[C@@H](CC(N)=O)C(=O)O` [SFLLRN-OH] showed a Ki of 0.54 µM. The same measure for `CC(C)CC(NC(=O)C(Cc1ccccc1)NC(=O)C(N)CO)C(=O)NC(CC(C)C)C(=O)NC(CCCN=C(N)N)C(=O)NC(CC(N)=O)C(=O)N1CCCC1C(=O)NC(CC(N)=O)C(=O)NC(CC(=O)O)C(=O)NC(CCCCN)C(=O)NC(Cc1ccc(O)cc1)C(=O)NC(CCC(=O)O)C(=O)N1CCCC1C(=O)NC(Cc1ccccc1)C(=O)O` (centres undefined) [SFLLRNPNDKYEPF-OH] (H-SFLLRNPNDKYEPF-OH; configuration not given here): 1.1 µM; for H-FSLLRN-NH2 [FSLLRN-NH2]: > 10 µM.

Turning to H-SLIGKV-NH2 [CAS_190383-13-2], the Ki was > 10 µM.
